# Data taken from PubChem BioAssay AID1963977 (Molecular Pharmacology Branch, DTP, NCI, 2024).
# Test system: 624824-186-R-J3-PDC multicell spheroids, viability
# Assay: Anticancer human tumor 624824-186-R-J3-PDC patient-derived colon adenocarcinoma cell line growth inhibition [PI3K]
# Details: for IC50: curve of first compound; for viability, T/C: stronger effect = lower value
# In short: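 We assembled tumor spheroids that included a stromal compartment of HUVEC and MSCs, then exposed them to targeted agents alone and together with PI3K pathway inhibitors. Concentration series descended by half-log from clinically achievable Cmax levels. Viability served as the endpoint.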
# [1] = second compound 0.0316 µM, first compound 0.0316 µM
# [2] = second compound 0.0316 µM, first compound 0.1 µM
# [3] = second compound 0.0316 µM, first compound 0.316 µM
# [4] = second compound 0.0316 µM, first compound 1 µM
# [5] = second compound 0.0316 µM, first compound 3.16 µM
# [6] = second compound 0.0316 µM, first compound 10 µM
# [7] = second compound 0.1 µM, first compound 0.0316 µM
# [8] = second compound 0.1 µM, first compound 0.1 µM
# [9] = second compound 0.1 µM, first compound 0.316 µM
# [10] = second compound 0.1 µM, first compound 1 µM
# [11] = second compound 0.1 µM, first compound 3.16 µM
# [12] = second compound 0.1 µM, first compound 10 µM
# [13] = second compound 0.316 µM, first compound 0.0316 µM
# [14] = second compound 0.316 µM, first compound 0.1 µM
# [15] = second compound 0.316 µM, first compound 0.316 µM
# [16] = second compound 0.316 µM, first compound 1 µM
# [17] = second compound 0.316 µM, first compound 3.16 µM
# [18] = second compound 0.316 µM, first compound 10 µM
# [19] = second compound 1 µM, first compound 0.0316 µM
# [20] = second compound 1 µM, first compound 0.1 µM
# [21] = second compound 1 µM, first compound 0.316 µM
# [22] = second compound 1 µM, first compound 1 µM
# [23] = second compound 1 µM, first compound 3.16 µM
# [24] = second compound 1 µM, first compound 10 µM
# 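Also: spheroids exposed to agents for seven days before luminescence read.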
# 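For viability, T/C in this document: luminescent signal used as a stand-in for spheroid viability; percent viability relative to DMSO vehicle control wells taken as 100%.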
structure (smiles),measurement,setting,value
Cn1cnc2c(F)c(Nc3ccc(Br)cc3Cl)c(C(=O)NOCCO)cc21 + Cc1nc(NC(=O)N2CCCC2C(N)=O)sc1-c1ccnc(C(C)(C)C(F)(F)F)c1,IC50,second compound 0.0316 µM,1890 nM
same,IC50,second compound 0.1 µM,884 nM
same,IC50,second compound 0.316 µM,515 nM
same,IC50,second compound 1 µM,207 nM
same,IC50,second compound 3.16 µM,48.4 nM
same,IC50,second compound 10 µM,14.9 nM
same,"viability, T/C","second compound 0.0316 µM, first compound 0.00949 µM",116%
same,"viability, T/C","second compound 0.0316 µM, first compound 0.03 µM",104%
same,"viability, T/C","second compound 0.0316 µM, first compound 0.0949 µM",89%
same,"viability, T/C","second compound 0.0316 µM, first compound 0.3 µM",82.1%
same,"viability, T/C","second compound 0.0316 µM, first compound 0.949 µM",62.8%
same,"viability, T/C","second compound 0.0316 µM, first compound 3 µM",40.5%
same,"viability, T/C","second compound 0.1 µM, first compound 0.00949 µM",105%
same,"viability, T/C","second compound 0.1 µM, first compound 0.03 µM",98.1%
same,"viability, T/C","second compound 0.1 µM, first compound 0.0949 µM",94.6%
same,"viability, T/C","second compound 0.1 µM, first compound 0.3 µM",68%
same,"viability, T/C","second compound 0.1 µM, first compound 0.949 µM",50.9%
same,"viability, T/C","second compound 0.1 µM, first compound 3 µM",31.6%
same,"viability, T/C","second compound 0.316 µM, first compound 0.00949 µM",114%
same,"viability, T/C","second compound 0.316 µM, first compound 0.03 µM",98.2%
same,"viability, T/C","second compound 0.316 µM, first compound 0.0949 µM",85.5%
same,"viability, T/C","second compound 0.316 µM, first compound 0.3 µM",59.9%
same,"viability, T/C","second compound 0.316 µM, first compound 0.949 µM",37.7%
same,"viability, T/C","second compound 0.316 µM, first compound 3 µM",22.4%
same,"viability, T/C","second compound 1 µM, first compound 0.00949 µM",97.3%
same,"viability, T/C","second compound 1 µM, first compound 0.03 µM",91.5%
same,"viability, T/C","second compound 1 µM, first compound 0.0949 µM",67.7%
same,"viability, T/C","second compound 1 µM, first compound 0.3 µM",40.1%
same,"viability, T/C","second compound 1 µM, first compound 0.949 µM",24.9%
same,"viability, T/C","second compound 1 µM, first compound 3 µM",12.5%
same,"viability, T/C","second compound 3.16 µM, first compound 0.00949 µM",73.8%
same,"viability, T/C","second compound 3.16 µM, first compound 0.03 µM",60.4%
same,"viability, T/C","second compound 3.16 µM, first compound 0.0949 µM",36.2%
same,"viability, T/C","second compound 3.16 µM, first compound 0.3 µM",22.6%
same,"viability, T/C","second compound 3.16 µM, first compound 0.949 µM",17.3%
same,"viability, T/C","second compound 3.16 µM, first compound 3 µM",6.56%
same,"viability, T/C","second compound 10 µM, first compound 0.00949 µM",56%
same,"viability, T/C","second compound 10 µM, first compound 0.03 µM",42.2%
same,"viability, T/C","second compound 10 µM, first compound 0.0949 µM",21.4%
same,"viability, T/C","second compound 10 µM, first compound 0.3 µM",16%
same,"viability, T/C","second compound 10 µM, first compound 0.949 µM",5.42%
same,"viability, T/C","second compound 10 µM, first compound 3 µM",1.91%
Cn1nccc1Nc1nccc(-c2ccn(C(CO)c3ccc(Cl)c(F)c3)c(=O)c2)n1 (stereo unspecified) + CC(Nc1ncnc2nc[nH]c12)c1cc2cccc(Cl)c2c(=O)n1-c1ccccc1,IC50,second compound 0.0316 µM,> 10000 nM
same,IC50,second compound 0.1 µM,> 10000 nM
same,IC50,second compound 0.316 µM,> 10000 nM
same,IC50,second compound 1 µM,9340 nM
same,IC50,second compound 3.16 µM,2840 nM
same,IC50,second compound 10 µM,633 nM
same,"viability, T/C",[1],103%
same,"viability, T/C",[2],93.9%
same,"viability, T/C",[3],95.1%
same,"viability, T/C",[4],76.9%
same,"viability, T/C",[5],61.2%
same,"viability, T/C",[6],57.4%
same,"viability, T/C",[7],103%
same,"viability, T/C",[8],85.4%
same,"viability, T/C",[9],94.5%
same,"viability, T/C",[10],74%
same,"viability, T/C",[11],61.2%
same,"viability, T/C",[12],57.3%
same,"viability, T/C",[13],89.7%
same,"viability, T/C",[14],88%
same,"viability, T/C",[15],87%
same,"viability, T/C",[16],72.7%
same,"viability, T/C",[17],62.6%
same,"viability, T/C",[18],51.8%
same,"viability, T/C",[19],98.5%
same,"viability, T/C",[20],88.2%
same,"viability, T/C",[21],91.2%
same,"viability, T/C",[22],77.7%
same,"viability, T/C",[23],61.8%
same,"viability, T/C",[24],49.4%
same,"viability, T/C","second compound 3.16 µM, first compound 0.0316 µM",103%
same,"viability, T/C","second compound 3.16 µM, first compound 0.1 µM",88.1%
same,"viability, T/C","second compound 3.16 µM, first compound 0.316 µM",74.8%
same,"viability, T/C","second compound 3.16 µM, first compound 1 µM",63%
same,"viability, T/C","second compound 3.16 µM, first compound 3.16 µM",47.4%
same,"viability, T/C","second compound 3.16 µM, first compound 10 µM",38.5%
same,"viability, T/C","second compound 10 µM, first compound 0.0316 µM",89.6%
same,"viability, T/C","second compound 10 µM, first compound 0.1 µM",81.7%
same,"viability, T/C","second compound 10 µM, first compound 0.316 µM",59.4%
same,"viability, T/C","second compound 10 µM, first compound 1 µM",43.5%
same,"viability, T/C","second compound 10 µM, first compound 3.16 µM",35.5%
same,"viability, T/C","second compound 10 µM, first compound 10 µM",30.2%
Cn1nccc1Nc1nccc(-c2ccn(C(CO)c3ccc(Cl)c(F)c3)c(=O)c2)n1 (stereo unspecified) + COc1c(OCCCN2CCOCC2)ccc2c3n(c(=NC(=O)c4cnc(N)nc4)nc12)CCN3,IC50,second compound 0.00316 µM,6980 nM
same,IC50,second compound 0.01 µM,1360 nM
same,IC50,second compound 0.0316 µM,400 nM
same,IC50,second compound 0.1 µM,153 nM
same,IC50,second compound 0.316 µM,< 31.6 nM
same,IC50,second compound 1 µM,< 31.6 nM
same,"viability, T/C","second compound 0.00316 µM, first compound 0.0316 µM",111%
same,"viability, T/C","second compound 0.00316 µM, first compound 0.1 µM",84.7%
same,"viability, T/C","second compound 0.00316 µM, first compound 0.316 µM",100%
same,"viability, T/C","second compound 0.00316 µM, first compound 1 µM",72.8%
same,"viability, T/C","second compound 0.00316 µM, first compound 3.16 µM",57.7%
same,"viability, T/C","second compound 0.00316 µM, first compound 10 µM",46.6%
same,"viability, T/C","second compound 0.01 µM, first compound 0.0316 µM",112%
same,"viability, T/C","second compound 0.01 µM, first compound 0.1 µM",100%
same,"viability, T/C","second compound 0.01 µM, first compound 0.316 µM",87.5%
same,"viability, T/C","second compound 0.01 µM, first compound 1 µM",51.4%
same,"viability, T/C","second compound 0.01 µM, first compound 3.16 µM",41.8%
same,"viability, T/C","second compound 0.01 µM, first compound 10 µM",34.4%
same,"viability, T/C",[1],90.2%
same,"viability, T/C",[2],83.8%
same,"viability, T/C",[3],56.2%
same,"viability, T/C",[4],26.4%
same,"viability, T/C",[5],25.1%
same,"viability, T/C",[6],21.8%
same,"viability, T/C",[7],74.5%
same,"viability, T/C",[8],58%
same,"viability, T/C",[9],35.9%
same,"viability, T/C",[10],14.2%
same,"viability, T/C",[11],10.7%
same,"viability, T/C",[12],9.81%
same,"viability, T/C",[13],46.3%
same,"viability, T/C",[14],38.4%
same,"viability, T/C",[15],18.3%
same,"viability, T/C",[16],7.62%
same,"viability, T/C",[17],4.31%
same,"viability, T/C",[18],2.66%
same,"viability, T/C",[19],26%
same,"viability, T/C",[20],20.9%
same,"viability, T/C",[21],13.4%
same,"viability, T/C",[22],6.73%
same,"viability, T/C",[23],3.58%
same,"viability, T/C",[24],2.38%
